Measurements taken from patent publication US20230085307A1, “PYRIDAZINONE COMPOUND AND HERBICIDE” (NISSAN CHEMICAL CORPORATION, priority 2019, published 2023).

What was measured:
blackgrass [1] = assay: Test Example 5: herbicidal effect by foliage application, plastic box (Table 20, symbol J); type: in vivo, blackgrass (Alopecurus myosuroides); conditions: foliage application, three weeks after application
How it was run: (§1)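 Plants were sown into sterilized diluvial soil under about 1.5 cm cover and kept in a greenhouse at 25° C. to 30° C. Fourteen days on, foliage received an even spray of the diluted emulsion. Herbicidal or crop effect was judged three weeks afterwards.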

lambsquarters [2] = assay: Test Example 4: herbicidal effect by soil treatment (Table 19, symbol O); type: in vivo, lambsquarters (Chenopodium album); conditions: amount of applied herbicide 320 g/ha
How it was run: (§2)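 Pre-emergence style soil spray: seeds under ~1.5 cm sterilized diluvial soil received a uniform coat of emulsion diluted to the predetermined herbicide amount. Greenhouse 25–30° C; readout at week three on previously defined criteria.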

Chinese sprangletop = assay: Test Example 3: herbicidal effect by foliage application, Wagner pot (Table 18, symbol D); type: in vivo, chinese sprangletop (Leptochloa chinensis); conditions: 320 g/ha
How it was run: (§3)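 Plants were sown in alluvial soil held under 0.1–0.5 cm standing water and grown 14 days in a greenhouse at 25–30 °C. An emulsifiable formulation, water-diluted to the set dose, was then sprayed onto the foliage, and effects were scored three weeks later using previously defined criteria.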

redroot pigweed [3] = assay: Test Example 4: herbicidal effect by soil treatment (Table 19, symbol N); type: in vivo, redroot pigweed (Amaranthus retroflexus); conditions: amount of applied herbicide 320 g/ha
How it was run: as §2

wild oat [4] = assay: Test Example 4: herbicidal effect by soil treatment (Table 19, symbol I); type: in vivo, wild oat (Avena fatua); conditions: amount of applied herbicide 320 g/ha
How it was run: as §2

persian speedwell [5] = assay: Test Example 5: herbicidal effect by foliage application, plastic box (Table 20, symbol R); type: in vivo, Persian speedwell (Veronica persica); conditions: foliage application, three weeks after application
How it was run: as §1

lambsquarters [6] = assay: Test Example 5: herbicidal effect by foliage application, plastic box (Table 20, symbol O); type: in vivo, lambsquarters (Chenopodium album); conditions: foliage application, three weeks after application
How it was run: as §1

barnyard grass [7] = assay: Test Example 5: herbicidal effect by foliage application, plastic box (Table 20, symbol H); type: in vivo, barnyard grass (Echinochloa crus-galli); conditions: foliage application, three weeks after application
How it was run: as §1

velvetleaf [8] = assay: Test Example 5: herbicidal effect by foliage application, plastic box (Table 20, symbol M); type: in vivo, velvetleaf (Abutilon theophrasti); conditions: foliage application, three weeks after application
How it was run: as §1

wild oat [9] = assay: Test Example 5: herbicidal effect by foliage application, plastic box (Table 20, symbol I); type: in vivo, wild oat (Avena fatua); conditions: foliage application, three weeks after application
How it was run: as §1

rice flat sedge = assay: Test Example 3: herbicidal effect by foliage application, Wagner pot (Table 18, symbol E); type: in vivo, rice flat sedge (Cyperus iria); conditions: 320 g/ha
How it was run: as §3

Italian ryegrass [10] = assay: Test Example 4: herbicidal effect by soil treatment (Table 19, symbol K); type: in vivo, Italian ryegrass (Lolium multiflorum); conditions: amount of applied herbicide 320 g/ha
How it was run: as §2

windgrass [11] = assay: Test Example 5: herbicidal effect by foliage application, plastic box (Table 20, symbol L); type: in vivo, windgrass (Apera spica-venti); conditions: foliage application, three weeks after application
How it was run: as §1

windgrass [12] = assay: Test Example 4: herbicidal effect by soil treatment (Table 19, symbol L); type: in vivo, windgrass (Apera spica-venti); conditions: amount of applied herbicide 320 g/ha
How it was run: as §2

barnyard grass [13] = assay: Test Example 3: herbicidal effect by foliage application, Wagner pot (Table 18, symbol H); type: in vivo, barnyard grass (Echinochloa crus-galli); conditions: 320 g/ha
How it was run: as §3

chickweed [14] = assay: Test Example 5: herbicidal effect by foliage application, plastic box (Table 20, symbol P); type: in vivo, common chickweed (Stellaria media); conditions: foliage application, three weeks after application
How it was run: as §1

southern crabgrass [15] = assay: Test Example 5: herbicidal effect by foliage application, plastic box (Table 20, symbol F); type: in vivo, southern crabgrass (Digitaria ciliaris); conditions: foliage application, three weeks after application
How it was run: as §1

barnyard grass [16] = assay: Test Example 4: herbicidal effect by soil treatment (Table 19, symbol H); type: in vivo, barnyard grass (Echinochloa crus-galli); conditions: amount of applied herbicide 320 g/ha
How it was run: as §2

southern crabgrass [17] = assay: Test Example 4: herbicidal effect by soil treatment (Table 19, symbol F); type: in vivo, southern crabgrass (Digitaria ciliaris); conditions: amount of applied herbicide 320 g/ha
How it was run: as §2

redroot pigweed [18] = assay: Test Example 5: herbicidal effect by foliage application, plastic box (Table 20, symbol N); type: in vivo, redroot pigweed (Amaranthus retroflexus); conditions: foliage application, three weeks after application
How it was run: as §1

blackgrass [19] = assay: Test Example 4: herbicidal effect by soil treatment (Table 19, symbol J); type: in vivo, blackgrass (Alopecurus myosuroides); conditions: amount of applied herbicide 320 g/ha
How it was run: as §2

chickweed [20] = assay: Test Example 4: herbicidal effect by soil treatment (Table 19, symbol P); type: in vivo, common chickweed (Stellaria media); conditions: amount of applied herbicide 320 g/ha
How it was run: as §2

persian speedwell [21] = assay: Test Example 4: herbicidal effect by soil treatment (Table 19, symbol R); type: in vivo, Persian speedwell (Veronica persica); conditions: amount of applied herbicide 320 g/ha
How it was run: as §2

green foxtail [22] = assay: Test Example 5: herbicidal effect by foliage application, plastic box (Table 20, symbol G); type: in vivo, green foxtail (Setaria viridis); conditions: foliage application, three weeks after application
How it was run: as §1

Italian ryegrass [23] = assay: Test Example 5: herbicidal effect by foliage application, plastic box (Table 20, symbol K); type: in vivo, Italian ryegrass (Lolium multiflorum); conditions: foliage application, three weeks after application
How it was run: as §1

green foxtail [24] = assay: Test Example 4: herbicidal effect by soil treatment (Table 19, symbol G); type: in vivo, green foxtail (Setaria viridis); conditions: amount of applied herbicide 320 g/ha
How it was run: as §2

velvetleaf [25] = assay: Test Example 4: herbicidal effect by soil treatment (Table 19, symbol M); type: in vivo, velvetleaf (Abutilon theophrasti); conditions: amount of applied herbicide 320 g/ha
How it was run: as §2

Structure (SMILES) | herbicidal effect rating, O: lambsquarters (lambsquarters [2]) | herbicidal effect on D (Chinese sprangletop), rating 0-5 (Chinese sprangletop) | herbicidal effect rating, N: redroot pigweed (redroot pigweed [3]) | herbicidal effect rating, I: wild oat (wild oat [4]) | herbicidal effect on E (rice flat sedge), rating 0-5 (rice flat sedge) | herbicidal effect rating, K: Italian ryegrass (Italian ryegrass [10]) | herbicidal effect rating, L: windgrass (windgrass [12]) | herbicidal effect on H (barnyard grass), rating 0-5 (barnyard grass [13]) | herbicidal effect rating, H: barnyard grass (barnyard grass [16]) | herbicidal effect rating, F: southern crabgrass (southern crabgrass [17]) | herbicidal effect rating, J: blackgrass (blackgrass [19]) | herbicidal effect rating, P: chickweed (chickweed [20]) | herbicidal effect rating, R: persian speedwell (persian speedwell [21]) | herbicidal effect rating, G: green foxtail (green foxtail [24]) | herbicidal effect rating, M: velvetleaf (velvetleaf [25]) | other results
CCCC(=O)Oc1c(C)nn(C)c(=O)c1-c1c(-c2ccc(F)cc2OC)sc2ccccc12 [1-056] | 3 (Herbicidal rate of 40% or more and less than 70%) | 2 (Herbicidal rate of 20% or more and less than 40%) | 5 (Herbicidal rate of 90% or more (almost completely withered)) | 3 (Herbicidal rate of 40% or more and less than 70%) | 5 (Herbicidal rate of 90% or more (almost completely withered)) | 0 (Herbicidal rate of 5% or less (almost no effect)) | 5 (Herbicidal rate of 90% or more (almost completely withered)) | 4 (Herbicidal rate of 70% or more and less than 90%) | 3 (Herbicidal rate of 40% or more and less than 70%) | 3 (Herbicidal rate of 40% or more and less than 70%) | 1 (Herbicidal rate of 5% or more and less than 20%) | 3 (Herbicidal rate of 40% or more and less than 70%) | 4 (Herbicidal rate of 70% or more and less than 90%) | 5 (Herbicidal rate of 90% or more (almost completely withered)) | 0 (Herbicidal rate of 5% or less (almost no effect)) | herbicidal effect grade, J: blackgrass (blackgrass [1]; 320 g/ha): 4 (Herbicidal rate of 70% or more and less than 90%); herbicidal effect grade, R: persian speedwell (persian speedwell [5]; 320 g/ha): 3 (Herbicidal rate of 40% or more and less than 70%); herbicidal effect grade, O: lambsquarters (lambsquarters [6]; 320 g/ha): 2 (Herbicidal rate of 20% or more and less than 40%); herbicidal effect grade, H: barnyard grass (barnyard grass [7]; 320 g/ha): 4 (Herbicidal rate of 70% or more and less than 90%); herbicidal effect grade, M: velvetleaf (velvetleaf [8]; 320 g/ha): 4 (Herbicidal rate of 70% or more and less than 90%); herbicidal effect grade, I: wild oat (wild oat [9]; 320 g/ha): 4 (Herbicidal rate of 70% or more and less than 90%); herbicidal effect grade, L: windgrass (windgrass [11]; 320 g/ha): 5 (Herbicidal rate of 90% or more (almost completely withered)); herbicidal effect grade, P: chickweed (chickweed [14]; 320 g/ha): 5 (Herbicidal rate of 90% or more (almost completely withered)); herbicidal effect grade, F: southern crabgrass (southern crabgrass [15]; 320 g/ha): 5 (Herbicidal rate of 90% or more (almost completely withered)); herbicidal effect grade, N: redroot pigweed (redroot pigweed [18]; 320 g/ha): 3 (Herbicidal rate of 40% or more and less than 70%); herbicidal effect grade, G: green foxtail (green foxtail [22]; 320 g/ha): 5 (Herbicidal rate of 90% or more (almost completely withered)); herbicidal effect grade, K: Italian ryegrass (Italian ryegrass [23]; 320 g/ha): 1 (Herbicidal rate of 5% or more and less than 20%)
C#CCOc1ccccc1-c1sc2ccccc2c1-c1c(O)c(C)nn(C)c1=O [1-112] | 0 (Herbicidal rate of 5% or less (almost no effect)) | 3 (Herbicidal rate of 40% or more and less than 70%) | 1 (Herbicidal rate of 5% or more and less than 20%) | 0 (Herbicidal rate of 5% or less (almost no effect)) | 3 (Herbicidal rate of 40% or more and less than 70%) | 0 (Herbicidal rate of 5% or less (almost no effect)) | 5 (Herbicidal rate of 90% or more (almost completely withered)) | 4 (Herbicidal rate of 70% or more and less than 90%) | 0 (Herbicidal rate of 5% or less (almost no effect)) | 0 (Herbicidal rate of 5% or less (almost no effect)) | 4 (Herbicidal rate of 70% or more and less than 90%) | 5 (Herbicidal rate of 90% or more (almost completely withered)) | 5 (Herbicidal rate of 90% or more (almost completely withered)) | 1 (Herbicidal rate of 5% or more and less than 20%) | 3 (Herbicidal rate of 40% or more and less than 70%) | J: blackgrass, herbicidal effect (blackgrass [1]; AAH 320 g/ha): 5 (Herbicidal rate of 90% or more (almost completely withered)); R: persian speedwell, herbicidal effect (persian speedwell [5]; AAH 320 g/ha): 5 (Herbicidal rate of 90% or more (almost completely withered)); O: lambsquarters, herbicidal effect (lambsquarters [6]; AAH 320 g/ha): 1 (Herbicidal rate of 5% or more and less than 20%); H: barnyard grass, herbicidal effect (barnyard grass [7]; AAH 320 g/ha): 4 (Herbicidal rate of 70% or more and less than 90%); M: velvetleaf, herbicidal effect (velvetleaf [8]; AAH 320 g/ha): 4 (Herbicidal rate of 70% or more and less than 90%); I: wild oat, herbicidal effect (wild oat [9]; AAH 320 g/ha): 5 (Herbicidal rate of 90% or more (almost completely withered)); L: windgrass, herbicidal effect (windgrass [11]; AAH 320 g/ha): 5 (Herbicidal rate of 90% or more (almost completely withered)); P: chickweed, herbicidal effect (chickweed [14]; AAH 320 g/ha): 5 (Herbicidal rate of 90% or more (almost completely withered)); F: southern crabgrass, herbicidal effect (southern crabgrass [15]; AAH 320 g/ha): 5 (Herbicidal rate of 90% or more (almost completely withered)); N: redroot pigweed, herbicidal effect (redroot pigweed [18]; AAH 320 g/ha): 5 (Herbicidal rate of 90% or more (almost completely withered)); G: green foxtail, herbicidal effect (green foxtail [22]; AAH 320 g/ha): 5 (Herbicidal rate of 90% or more (almost completely withered)); K: Italian ryegrass, herbicidal effect (Italian ryegrass [23]; AAH 320 g/ha): 3 (Herbicidal rate of 40% or more and less than 70%)
